13 molecules from paper PMC10442672, “Synthesis of amantadine clubbed N-aryl amino thiazoles as potent urease, α-amylase & α-glucosidase inhibitors, kinetic and molecular docking studies” (RSC Advances, 2023) can be followed below.

The nature of data set [1]: DPPH assay (antioxidant potential). The settings on record: DPPH 100 μM; 30 minutes at 37 °C; triplicate. On the procedure:
DPPH assay as reported earlier was used to determine the antioxidant potential of newly synthesised compound.[46] For experiment, […] (100 μM) solution was mixed with 5 μl of sample compounds and ascorbic acid (positive control) at concentration of 100, 50 and 25 μM in 96-well plate respectively. Plate was incubated in dark for 30 minutes at 37 °C and then absorbance was measured at 515 nm using Elx800 microtiter plate reader. The experiment was performed in triplicate and percentage scavenging was calculated as following:Percentage scavenging (%) = [1 − absorbance of sample/absorbance of control] × 100
In general terms: The DPPH test is a chemical assay of radical scavenging.

For data set [2], the target named is α-amylase. Type of data set: biochemical. The settings on record: starch substrate; pH 6.8; 30 minutes at 50 °C; triplicate. On the procedure: α-Amylase inhibition assay was performed to calculate the enzyme inhibition potential of newly synthesised compounds.[48] […] In blank 40 μl starch and 50 μl phosphate buffer was added. […] Then absorbance was measured at 540 nm using Elx800 microtiter plate reader.

Data set [3] relates to Staphylococcus aureus. In words: Antibacterial disc diffusion assay. Type of data set: cell-based. The method, then:
(§1) Anti-bactericidal activity of the compounds was determined by using disc diffusion method. […] The assay was performed in triplicate and Kanamycin was used as positive control. […] According to Yildiz et al.[39] the antibacterial activity of a substitution connected to a biologically active molecule may be increased.
(§2) Disc diffusion assay was used to determine the antibacterial potential of newly synthesised compounds as reported earlier.[45] For experiment, 1% inoculum of Bacillus subtilis, Staphylococcus aureus, Escherichia coli and Pseudomonas aeruginosa was transferred to autoclaved nutrient agar media (23 g l^−1) respectively. Then media were poured in respective plates and allowed to solidify. Samples (100 μM) and Kanamycin drug (10 μM) was loaded on sterile paper disc (5 mm) and these discs were placed on Petriplates at appropriate distance. Plates were incubated for 24 hours at 37 °C and zone of inhibition were measured using Vernier calliper.

In data set [4] the test system is Escherichia coli. The experiment in a line: Antibacterial disc diffusion assay. Type of data set: cell-based. On the procedure:
as §1, §2
A general note: A growth-free zone around the sample is the usual read-out of agar diffusion tests.

The subject of data set [5] is Pseudomonas aeruginosa. The experiment in a line: Antibacterial disc diffusion assay. Format: cell-based. The method, then:
as §1, §2

Data set [6] has as its system Bacillus subtilis. The experiment in a line: Antibacterial disc diffusion assay. To be noted: for MIC / zone of inhibition at 100 µM: Bacillus subtilis. Type of data set: cell-based. On the procedure:
as §1, §2

Data set [7] concerns Bacillus subtilis, Staphylococcus aureus, Escherichia coli and Pseudomonas aeruginosa. The experiment in a line: Antibacterial disc diffusion assay, all four tested strains. Format: cell-based. On the procedure:
as §1, §2

Data set [8] has as its target urease (Canavalia ensiformis, UniProt P07374). The settings on record: read-out: Urease IC50; 100 mM urea; pH 8.2; 37 °C; triplicate.
[9] abbreviates: disc diffusion, samples 100 μM, Kanamycin 10 μM on disc, 24 hours at 37 °C.

≈ marks a conversion by molar mass, not a printed value. Where “and” joins values, the source holds several entries; their conditions need not be identical. Equal entries are not always repeated.

urease, sequence (P07374 whole entry, looked up, the tested form may be a part): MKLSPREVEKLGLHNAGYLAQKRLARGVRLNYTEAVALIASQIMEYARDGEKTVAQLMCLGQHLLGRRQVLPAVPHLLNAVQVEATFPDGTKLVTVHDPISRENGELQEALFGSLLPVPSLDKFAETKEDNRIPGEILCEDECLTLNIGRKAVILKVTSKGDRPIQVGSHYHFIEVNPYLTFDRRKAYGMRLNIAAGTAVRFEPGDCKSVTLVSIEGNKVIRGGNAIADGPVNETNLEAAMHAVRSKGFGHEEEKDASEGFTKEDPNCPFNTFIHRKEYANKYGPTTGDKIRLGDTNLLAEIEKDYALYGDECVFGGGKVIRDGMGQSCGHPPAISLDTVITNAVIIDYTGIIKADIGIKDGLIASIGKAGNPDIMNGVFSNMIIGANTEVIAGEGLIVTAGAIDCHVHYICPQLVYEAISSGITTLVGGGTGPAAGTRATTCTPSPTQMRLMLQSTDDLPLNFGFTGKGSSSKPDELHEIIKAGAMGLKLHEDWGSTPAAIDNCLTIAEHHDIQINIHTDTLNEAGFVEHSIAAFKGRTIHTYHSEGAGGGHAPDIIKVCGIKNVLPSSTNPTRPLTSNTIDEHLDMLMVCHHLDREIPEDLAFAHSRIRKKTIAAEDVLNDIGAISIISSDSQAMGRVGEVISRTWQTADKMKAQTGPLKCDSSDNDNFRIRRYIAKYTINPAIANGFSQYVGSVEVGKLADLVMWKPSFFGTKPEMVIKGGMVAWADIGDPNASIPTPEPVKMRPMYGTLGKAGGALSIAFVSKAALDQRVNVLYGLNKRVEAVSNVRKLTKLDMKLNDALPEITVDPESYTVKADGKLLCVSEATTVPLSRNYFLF

As usually defined, the IC50 is the concentration needed to halve the response being measured. Consider `O=C1O[C@H]([C@@H](O)CO)C(O)=C1O` [Ascorbic acid, reference compound], for which the IC50 in data set [1] was 0.892 µM and 0.89 µM.
Broadly, the melting point is the temperature, or range, at which the solid turns liquid. As a reminder, the MIC is the lowest concentration found to suppress growth. For orientation: zone of inhibition means the extent of the growth-free halo in a diffusion test. A higher zone of inhibition goes with a stronger effect on the plate. In the case of `Cc1nc(N)sc1C(=O)NC12CC3CC(CC(C3)C1)C2` [Compound 6a, N-(Adamantan-1-yl)-2-amino-4-methylthiazole-5-carboxamide], the melting point lay within 256 to 257 °C. The same molecule returned a 50% inhibitory concentration (IC50) in data set [2] of 118.3 ± 0.71 µM. For the same molecule, in data set [3] (Staphylococcus aureus), it took 75 µM (≈ 21.9 µg/mL) to inhibit growth (MIC). Moreover, in data set [3] (Staphylococcus aureus, disc diffusion, samples 100 μM, Kanamycin 10 μM on disc, 24 hours at 37 °C), the zone of inhibition at 100 µM was 8 mm. The lowest concentration to inhibit growth in data set [4] (Escherichia coli) (MIC) was 50 µM (≈ 14.6 µg/mL). The same molecule came in with a zone of inhibition at 100 µM in [4] (Escherichia coli, disc diffusion, samples 100 μM, Kanamycin 10 μM on disc, 24 hours at 37 °C) of 11 mm. Also, in [5] (Pseudomonas aeruginosa), 50 µM (≈ 14.6 µg/mL) was the least that counted as inhibitory (MIC). This molecule also showed a zone of inhibition at 100 µM in data set [5] (Pseudomonas aeruginosa, disc diffusion, samples 100 μM, Kanamycin 10 μM on disc, 24 hours at 37 °C) of 10 mm. In data set [6], 50 µM (≈ 14.6 µg/mL) was the least that counted as inhibitory (MIC). This molecule also came in with a zone of inhibition at 100 µM in [6] (setting [9]) of 13 mm. Further, the “antibacterial activity against tested bacterial strains” value (“antibacterial activity” for short) in [7] is “significant antibacterial activity”. The IC50 in [1] came to 157 ± 10.3 µM.
For the molecule `Cc1nc(Nc2ccc([N+](=O)[O-])cc2)sc1C(=O)NC12CC3CC(CC(C3)C1)C2` [Compound 6b, N-(Adamantan-1-yl)-4-methyl-2-((4-nitrophenyl)amino)thiazole-5-carboxamide], the melting point lay in the range of 300 to 303 °C. This molecule registered an IC50 in data set [2] of more than 100 µM. Further, in data set [7], the “antibacterial activity” value is reported as “no antibacterial activity”. Further, inhibition in [1] was half-maximal at 108 ± 1.93 µM (IC50).
In turn, `Cc1nc(Nc2ccc(Br)cc2)sc1C(=O)NC12CC3CC(CC(C3)C1)C2` [Compound 6c, N-(Adamantan-1-yl)-4-methyl-2-((4-bromophenyl)amino)thiazole-5-carboxamide] returned a melting point of 277 to 280 °C. In [2], this molecule showed an IC50 of more than 100 µM. In data set [6], this molecule came in with an MIC of 75 µM (≈ 33.5 µg/mL). In data set [6] (setting [9]), this molecule yielded a zone of inhibition at 100 µM of 7 mm. Besides, the “antibacterial activity” value in [7] was “activity against one bacterial strain out of four”. For the same molecule, 126 ± 2.66 µM corresponded to half-maximal inhibition in [1] (IC50).
As to `COc1ccc(Nc2nc(C)c(C(=O)NC34CC5CC(CC(C5)C3)C4)s2)cc1` [Compound 6d, N-(Adamantan-1-yl)-4-methyl-2-((4-methoxyphenyl)amino)thiazole-5-carboxamide], the melting point fell in the range of 226 to 229 °C. The same molecule returned an IC50 in [2] of 97.4 ± 1.53 µM. The “antibacterial activity” value in data set [7] is given as “no antibacterial activity”. Also, in data set [1], the IC50 came out at 19.2 ± 0.37 µM.
In turn, `COc1ccccc1Nc1nc(C)c(C(=O)NC23CC4CC(CC(C4)C2)C3)s1` [Compound 6e, N-(Adamantan-1-yl)-4-methyl-2-((2-methoxyphenyl)amino)thiazole-5-carboxamide] came in with a melting point of 210 to 212 °C. Further, in [2], the IC50 is more than 100 µM and the “α-Amylase IC50” value is “inactive”. In data set [7], the “antibacterial activity” value is “no antibacterial activity”. The same molecule had an IC50 in data set [1] of 110.3 ± 0.76 µM.
For the molecule `Cc1nc(Nc2cccc(Cl)c2)sc1C(=O)NC12CC3CC(CC(C3)C1)C2` [Compound 6f, N-(Adamantan-1-yl)-4-methyl-2-((3-chlorophenyl)amino)thiazole-5-carboxamide], the melting point was 253 to 254 °C. Besides, the IC50 in data set [2] is more than 100 µM. The “antibacterial activity” value in data set [7] is “no antibacterial activity”. This molecule gave an IC50 in data set [1] of 136.7 ± 1.33 µM.
`Cc1nc(Nc2ccccc2Cl)sc1C(=O)NC12CC3CC(CC(C3)C1)C2` [Compound 6g, N-(Adamantan-1-yl)-4-methyl-2-((2-chlorophenyl)amino)thiazole-5-carboxamide] gave a melting point of 202 to 203 °C. Further, the IC50 in [2] was more than 100 µM. In [6], this molecule came in with an MIC of 75 µM (≈ 30.1 µg/mL). In [6] (setting [9]), the zone of inhibition at 100 µM is 7 mm. Further, the “antibacterial activity” value in data set [7] is “activity against one bacterial strain out of four”. Moreover, the IC50 in data set [1] was 122 ± 6.54 µM.
`Cc1nc(Nc2ccc(NS(C)(=O)=O)c(Oc3ccccc3)c2)sc1C(=O)NC12CC3CC(CC(C3)C1)C2` [Compound 6h, N-Adamantyl-4-methyl-2-((4-(methylsulfonamido)-3-phenoxyphenyl)amino) thiazole-5-carboxamide] displayed a melting point of 156 to 160 °C. In [2], this molecule returned an IC50 of more than 100 µM. Further, the midpoint of inhibition in data set [1], the IC50, lay at 64.1 ± 0.71 µM.
The corresponding values for `Cc1nc(Nc2cccc(F)c2)sc1C(=O)NC12CC3CC(CC(C3)C1)C2` [Compound 6i, N-Adamantyl-2-((3-fluorophenyl)amino)-4-methylthiazole-5-carboxamide] are 220 to 225 °C, more than 100 µM and 131 ± 1.11 µM.
The like results for `Cc1nc(NC23CC4CC(CC(C4)C2)C3)sc1C(=O)NC12CC3CC(CC(C3)C1)C2` [Compound 6j, N-Adamantanyl-2-(((3s,5s,7s)-adamantan-1-yl)amino)-4-methylthiazole-5-carboxamide] were, in that order, 250 to 253 °C, more than 100 µM and 137.9 ± 0.9 µM.
Regarding `NC[C@H]1O[C@H](O[C@H]2[C@H](O)[C@@H](O[C@H]3O[C@H](CO)[C@@H](O)[C@H](N)[C@H]3O)[C@H](N)C[C@@H]2N)[C@H](O)[C@@H](O)[C@@H]1O` [Kanamycin, reference compound], the “MIC Staphylococcus aureus” value in [3] is on record as “MIC = 20 μM”. In addition, the “Antibacterial zone of inhibition Staphylococcus aureus” value in [3] (setting [9]) was found to be 24 mm. Moreover, the “MIC Escherichia coli” value in data set [4] is “MIC = 25 μM”. The “Antibacterial zone of inhibition Escherichia coli” value in data set [4] (setting [9]) was found to be 20 mm. The “MIC Pseudomonas aeruginosa” value in [5] is listed as “MIC = 20 μM”. Moreover, the “Antibacterial zone of inhibition Pseudomonas aeruginosa” value in data set [5] (setting [9]) is 22 mm. The “MIC Bacillus subtilis” value in data set [6] is on record as “MIC = 25 μM”. In data set [6] (setting [9]), the “Antibacterial zone of inhibition Bacillus subtilis” value is listed as 21 mm.
Regarding `NC(N)=S` [Thiourea], the IC50 in data set [8] was found to be 1.33 µM.
